“And” between values parts separate entries of the source, which are not always exact repeats. Equal values may be shown once.
Test system: 885512-296-R-J2-PDC complex spheroid viability
Assay: Anticancer human tumor 885512-296-R-J2-PDC patient-derived breast carcinoma cell line growth inhibition [GQUAD]
Details: for viability, T/C: stronger effect = lower value
Text: DNA G-quadruplex Stabilizer Agents in Combinations in Complex Spheroids
A high-throughput screen of multi-cell type tumor spheroids was designed to identify active combinations of DNA G-quadruplex stabilizer agents and targeted small molecules. Complex spheroids include a stromal component modeled by human endothelial cells (HUVEC) and fibroblasts modeled by human mesenchymal stem cells (MSCs). The concentration ranges selected for each drug and investigational agent were based upon clinically achievable concentrations if the clinical Cmax of the agent was known.
Compounds. The drugs and investigational agents: pidnarulex (CX-5461; NSC782164), APTO-253 (NSC789042), BRACO-19 (NSC847499), peposertib (NSC802822), ceralasertib (NSC780249), elimusertib (NSC800525), camonsertib (NSC841442), AZD-1390 (NSC803789), olaparib (NSC753686), talazoparib (NSC767125), ART-558 (NSC835418), sotorasib (NSC818433), MRTX-1133 (NSC836407), SN-38 (NSC673596), topotecan (NSC609699), etoposide (NSC141540), doxorubicin (NSC123127), gemcitabine (NSC613327), 5-fluorouracil (NSC19893), paclitaxel (NSC125973), vemurafenib (NSC761431), panobinostat (NSC761190), R-306465 (JNJ-16241199; NSC773264), adavosertib (NSC754352), TP-3654 (NSC805149), carboplatin (NSC241240), KSQ-4279 (NSC840948), and staurosporine (NSC755774) were obtained from the National Cancer Institute (NCI) Developmental Therapeutics Program Chemical Repository (34). The FDA-approved anticancer drug set is available from the NCI Developmental Therapeutics Program. […] The stock solutions were prepared in dimethyl sulfoxide (DMSO, Sigma-Aldrich, St. Louis, MO, cat. D2650) at 800-fold the tested concentration and stored at -70 degrees C prior to their use. All drugs and investigational agents were tested over a range starting from a high concentration at or near the clinical Cmax and decreasing in half-log increments. If the clinical Cmax for an agent had not been determined, the highest concentration tested was 10 microM.
2.3 Cell Culture. All cells were maintained in an incubator at 37 degrees C and 5% CO2 with 95% humidity. The PDC lines were cultured according to standard operating procedures established by the NCI PDMR. All PDCs were thawed and cultured in Matrigel-coated flasks prepared with a working solution of 1X Ham's F-12 nutrient mix, without supplementation (Invitrogen, cat. 11765054), 100 U/mL penicillin-streptomycin (Invitrogen, cat. 15140122), and 2.5% Matrigel (Corning Inc., cat. 354248) for the first three passages. The 857933-349-R-J2-PDC line was cultured in 6C/Colon 1B media, which includes advanced DMEM/F-12 (Thermo Fisher Scientific, cat. 12634028), 10 mM HEPES (Thermo Fisher Scientific, cat. 15630080), 1X GlutaMAX supplement (Thermo Fisher Scientific, cat. 35050061), 0.1 mg/mL primocin (InvivoGen, cat. ant-pm-2), 10% defined fetal bovine serum, heat inactivated (HyClone Laboratories Inc., cat. SH30070.03HI), 50% L-WRN conditioned media (ATCC, cat. CRL-3276), 1.25 mM N-Acetyl-L-cysteine (Sigma-Aldrich, cat. A9165), 10 mM nicotinamide (Sigma-Aldrich, cat. N0636), 1X B-27 supplement (Thermo Fisher Scientific, cat. 17504044), 1X N-2 supplement (Thermo Fisher Scientific, cat. 17502048), 10 microM Y-27632 dihydrochloride (Tocris Bioscience, cat. 1254), and 50 ng/mL human EGF recombinant protein (Thermo Fisher Scientific, cat. PHG0311). The 485176-168-R4-J1-PDC line was cultured in Panc media, which includes all 6C/Colon 1B media components plus 100 ng/mL human FGF-10 (Thermo Fisher Scientific, cat. 100-26), 500 nM SB-431542 (Selleckchem, cat. S1067), and gastrin (Tocris, cat. 3006).
[…]
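Further: spheroids exposed to the compounds for one week.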
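Wherever viability, T/C is given: percent of tumor spheroid viability relative to DMSO vehicle control wells.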

In the case of `CC1COCCN1c1cc(C2(O)CC3CCC(C2)O3)c2cnn(-c3ccn[nH]3)c2n1` (stereo not given), the viability, T/C (compound 0.0316 µM) is reported as 35.6% and 35.7% and 28.2%, the viability, T/C (compound 0.1 µM) is reported as 5.4% and 6.31% and 4.72% and the viability, T/C (compound 0.316 µM) is reported as 3.47% and 3.66% and 2.97%. For the same compound, the viability, T/C (compound 1 µM) was 4.37% and 4.46% and 4.22%, the viability, T/C (compound 3.16 µM) was 5.77% and 6.96% and 7.53% and the viability, T/C (compound 10 µM) was 7.08% and 8.11% and 7.48%. For the same compound, the IC50 (curve of compound) was less than 31.6 nM.
With `CC[C@@]1(O)C(=O)OCc2c1cc1n(c2=O)Cc2cc3c(CN(C)C)c(O)ccc3nc2-1` + CN(C)c1ccc(Nc2c3ccc(NC(=O)CCN4CCCC4)cc3nc3cc(NC(=O)CCN4CCCC4)ccc23)cc1 the IC50 (curve of first compound, second compound 0.0316 µM) was 19.5 nM, the IC50 (curve of first compound, second compound 0.1 µM) was 22 nM and the IC50 (curve of first compound, second compound 0.316 µM) was 20.2 nM. For the same compound, the IC50 (curve of first compound, second compound 1 µM) was 20.2 nM, the IC50 (curve of first compound, second compound 3.16 µM) was 19.8 nM and the IC50 (curve of first compound, second compound 10 µM) was less than 0.999 nM. It also gave a viability, T/C (second compound 0.0316 µM, first compound 0.000999 µM) of 105%, a viability, T/C (second compound 0.0316 µM, first compound 0.00316 µM) of 93.1% and a viability, T/C (second compound 0.0316 µM, first compound 0.00999 µM) of 80.7%. The viability, T/C (second compound 0.0316 µM, first compound 0.0316 µM) was 28.4%, the viability, T/C (second compound 0.0316 µM, first compound 0.0999 µM) was 6.28% and the viability, T/C (second compound 0.0316 µM, first compound 0.316 µM) was 4.08%. For the same compound, the viability, T/C (second compound 0.1 µM, first compound 0.000999 µM) was 102%, the viability, T/C (second compound 0.1 µM, first compound 0.00316 µM) was 95.5% and the viability, T/C (second compound 0.1 µM, first compound 0.00999 µM) was 83.5%. It also gave a viability, T/C (second compound 0.1 µM, first compound 0.0316 µM) of 34.9%, a viability, T/C (second compound 0.1 µM, first compound 0.0999 µM) of 6.9% and a viability, T/C (second compound 0.1 µM, first compound 0.316 µM) of 3.94%. It also gave a viability, T/C (second compound 0.316 µM, first compound 0.000999 µM) of 95.9%, a viability, T/C (second compound 0.316 µM, first compound 0.00316 µM) of 103% and a viability, T/C (second compound 0.316 µM, first compound 0.00999 µM) of 80.7%. The viability, T/C (second compound 0.316 µM, first compound 0.0316 µM) was 30.2%, the viability, T/C (second compound 0.316 µM, first compound 0.0999 µM) was 8.66% and the viability, T/C (second compound 0.316 µM, first compound 0.316 µM) was 5.73%. The viability, T/C (second compound 1 µM, first compound 0.000999 µM) was 99%, the viability, T/C (second compound 1 µM, first compound 0.00316 µM) was 89.1% and the viability, T/C (second compound 1 µM, first compound 0.00999 µM) was 78.9%. It also gave a viability, T/C (second compound 1 µM, first compound 0.0316 µM) of 32.2%, a viability, T/C (second compound 1 µM, first compound 0.0999 µM) of 8.09% and a viability, T/C (second compound 1 µM, first compound 0.316 µM) of 7.14%. For the same compound, the viability, T/C (second compound 3.16 µM, first compound 0.000999 µM) was 85.8%, the viability, T/C (second compound 3.16 µM, first compound 0.00316 µM) was 78.5% and the viability, T/C (second compound 3.16 µM, first compound 0.00999 µM) was 82.5%. The viability, T/C (second compound 3.16 µM, first compound 0.0316 µM) was 28.2%, the viability, T/C (second compound 3.16 µM, first compound 0.0999 µM) was 11.3% and the viability, T/C (second compound 3.16 µM, first compound 0.316 µM) was 5.81%. The viability, T/C (second compound 10 µM, first compound 0.000999 µM) was 20.1%, the viability, T/C (second compound 10 µM, first compound 0.00316 µM) was 23.4% and the viability, T/C (second compound 10 µM, first compound 0.00999 µM) was 18.2%. For the same compound, the viability, T/C (second compound 10 µM, first compound 0.0316 µM) was 10.8%, the viability, T/C (second compound 10 µM, first compound 0.0999 µM) was 7.67% and the viability, T/C (second compound 10 µM, first compound 0.316 µM) was 5.22%.
In the case of `Cc1cnc(CNC(=O)c2c(=O)c3ccc(N4CCCN(C)CC4)nc3n3c2sc2ccccc23)cn1`, the viability, T/C (compound 0.0316 µM) is reported as 86.1% [middle of 12 runs], the viability, T/C (compound 0.316 µM) is reported as 28.4% [middle of 12 runs] and the viability, T/C (compound 1 µM) is reported as 26.3% [middle of 12 runs]. For the same compound, the viability, T/C (compound 3.16 µM) was 27% [middle of 12 runs], the viability, T/C (compound 10 µM) was 0.17% [middle of 9 runs] and the IC50 (compound alone, run of 04/16/2024) was 166 nM [middle of 12 runs].

Reference: PubChem BioAssay AID2060490 (Molecular Pharmacology Branch, DTP, NCI, 2025)
